Results published in ChEMBL document CHEMBL1201862, “PubChem BioAssay data set” (2004).
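Test compounds were applied to cells in 96-well plates for 48 hours at 5 doses. At the GI50, growth is halved.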 Calls of active or inactive are those of the source. No stated cut-off is given here; in the data, active = GI50 up to about 1.1 µM and inactive = higher.

Experiments:
Assay in all cases: NCI tumour cell line growth inhibition, 48 h
T47D = tested on: T47D
SW-620 = tested on: SW-620
OVCAR-8 = tested on: OVCAR-8
SNB-75 = tested on: SNB-75
HL-60 = tested on: HL-60
OVCAR-5 = tested on: OVCAR-5
SK-MEL-2 = tested on: SK-MEL-2
HOP-92 = tested on: HOP-92
CCRF-CEM = tested on: CCRF-CEM
SNB-19 = tested on: SNB-19
HCT-15 = tested on: HCT-15
M14 = tested on: M14
UACC-62 = tested on: UACC-62
EKVX = tested on: EKVX
MDA-MB-435 = tested on: MDA-MB-435
HT-29 = tested on: HT-29
UO-31 = tested on: UO-31
DU-145 = tested on: DU-145
NCI-H522 = tested on: NCI-H522
RPMI-8226 = tested on: RPMI-8226
SR = tested on: SR
TK-10 = tested on: TK-10
HOP-62 = tested on: HOP-62
BT-549 = tested on: BT-549
NCI-H460 = tested on: NCI-H460
HCC 2998 = tested on: HCC 2998
A498 = tested on: A498
LOX IMVI = tested on: LOX IMVI
SK-OV-3 = tested on: SK-OV-3
Malme-3M = tested on: Malme-3M
SF-295 = tested on: SF-295
NCI-H23 = tested on: NCI-H23
SK-MEL-5 = tested on: SK-MEL-5
SF-268 = tested on: SF-268
RXF 393 = tested on: RXF 393
COLO 205 = tested on: COLO 205
U-251 = tested on: U-251
IGROV-1 = tested on: IGROV-1
KM12 = tested on: KM12
MDA-N = tested on: MDA-N
MCF7 = tested on: MCF7
UACC-257 = tested on: UACC-257
Hs-578T = tested on: Hs-578T
NCI/ADR-RES = tested on: NCI/ADR-RES
OVCAR-4 = tested on: OVCAR-4
MDA-MB-231 = tested on: MDA-MB-231
786-0 = tested on: 786-0
CAKI-1 = tested on: CAKI-1
ACHN = tested on: ACHN
PC-3 = tested on: PC-3
MOLT-4 = tested on: MOLT-4
K562 = tested on: K562
SN12C = tested on: SN12C
OVCAR-3 = tested on: OVCAR-3
HCT-116 = tested on: HCT-116
SK-MEL-28 = tested on: SK-MEL-28
A549 = tested on: A549

Q: How did the GI50 (T47D) turn out when `O=C(O)CCc1c2ccc(=O)c(O)c-2oc2c(O)c(O)ccc12` was run?
A: The GI50 was > 100 µM (inactive).

Q: And the GI50 (SW-620)?
A: The GI50 was 22.2 µM (inactive).

Q: And the GI50 (OVCAR-8)?
A: Its GI50 is 54.6 µM (inactive).

Q: And the GI50 (SNB-75)?
A: Its GI50 is 24.9 µM (inactive).

Q: What about the GI50 (HL-60) of the same molecule?
A: The GI50 was 44.3 µM (inactive).

Q: And the GI50 (OVCAR-5)?
A: Its GI50 is > 100 µM (inactive).

Q: What about the GI50 (SK-MEL-2) of the same molecule?
A: The GI50 was > 100 µM (inactive).

Q: And the GI50 (HOP-92)?
A: The GI50 was > 100 µM (inactive).

Q: And the GI50 (CCRF-CEM)?
A: Its GI50 is 2.29 µM (inactive).

Q: What about the GI50 (SNB-19) of the same molecule?
A: Its GI50 is > 100 µM (inactive).

Q: And the GI50 (HCT-15)?
A: Its GI50 is 79.4 µM.

Q: What about the GI50 (M14) of the same molecule?
A: Its GI50 is > 100 µM (inactive).

Q: And the GI50 (UACC-62)?
A: The GI50 was > 100 µM (inactive).

Q: What about the GI50 (EKVX) of the same molecule?
A: Its GI50 is 28.8 µM (inactive).

Q: And the GI50 (MDA-MB-435)?
A: Its GI50 is 17.1 µM (inactive).

Q: And the GI50 (HT-29)?
A: Its GI50 is > 100 µM (inactive).

Q: What about the GI50 (UO-31) of the same molecule?
A: Its GI50 is > 100 µM (inactive).

Q: And the GI50 (DU-145)?
A: The GI50 was > 100 µM (inactive).

Q: And the GI50 (NCI-H522)?
A: Its GI50 is 27.4 µM (inactive).

Q: And the GI50 (RPMI-8226)?
A: The GI50 was 32 µM (inactive).

Q: And the GI50 (SR)?
A: The GI50 was 37.2 µM (inactive).

Q: And the GI50 (TK-10)?
A: Its GI50 is > 100 µM (inactive).

Q: What about the GI50 (HOP-62) of the same molecule?
A: The GI50 was > 100 µM (inactive).

Q: What about the GI50 (BT-549) of the same molecule?
A: Its GI50 is 87.5 µM (inactive).

Q: And the GI50 (NCI-H460)?
A: Its GI50 is > 100 µM (inactive).

Q: What about the GI50 (HCC 2998) of the same molecule?
A: The GI50 was 8.55 µM (inactive).

Q: What about the GI50 (A498) of the same molecule?
A: Its GI50 is 46.7 µM (inactive).

Q: What about the GI50 (LOX IMVI) of the same molecule?
A: Its GI50 is 20.1 µM (inactive).

Q: What about the GI50 (SK-OV-3) of the same molecule?
A: The GI50 was > 100 µM (inactive).

Q: What about the GI50 (Malme-3M) of the same molecule?
A: Its GI50 is 26.4 µM (inactive).

Q: What about the GI50 (SF-295) of the same molecule?
A: Its GI50 is 30.7 µM (inactive).

Q: What about the GI50 (NCI-H23) of the same molecule?
A: Its GI50 is 61.4 µM (inactive).

Q: What about the GI50 (SK-MEL-5) of the same molecule?
A: The GI50 was > 100 µM (inactive).

Q: And the GI50 (SF-268)?
A: The GI50 was 32.4 µM (inactive).

Q: What about the GI50 (RXF 393) of the same molecule?
A: The GI50 was > 100 µM (inactive).

Q: What about the GI50 (COLO 205) of the same molecule?
A: Its GI50 is > 100 µM (inactive).

Q: What about the GI50 (U-251) of the same molecule?
A: Its GI50 is 30.1 µM (inactive).

Q: And the GI50 (IGROV-1)?
A: The GI50 was > 100 µM (inactive).

Q: And the GI50 (KM12)?
A: Its GI50 is 29.3 µM (inactive).

Q: And the GI50 (MDA-N)?
A: Its GI50 is 16.3 µM (inactive).

Q: And the GI50 (MCF7)?
A: Its GI50 is 14.8 µM (inactive).

Q: What about the GI50 (UACC-257) of the same molecule?
A: Its GI50 is > 100 µM (inactive).

Q: What about the GI50 (Hs-578T) of the same molecule?
A: Its GI50 is 14.2 µM (inactive).

Q: And the GI50 (NCI/ADR-RES)?
A: Its GI50 is > 100 µM (inactive).

Q: What about the GI50 (OVCAR-4) of the same molecule?
A: Its GI50 is 46.2 µM (inactive).

Q: What about the GI50 (MDA-MB-231) of the same molecule?
A: The GI50 was 20.6 µM (inactive).

Q: What about the GI50 (786-0) of the same molecule?
A: Its GI50 is 19.4 µM (inactive).

Q: What about the GI50 (CAKI-1) of the same molecule?
A: Its GI50 is > 100 µM (inactive).

Q: And the GI50 (ACHN)?
A: The GI50 was 39.1 µM (inactive).

Q: What about the GI50 (PC-3) of the same molecule?
A: The GI50 was > 100 µM (inactive).

Q: And the GI50 (MOLT-4)?
A: The GI50 was 23.3 µM (inactive).

Q: What about the GI50 (K562) of the same molecule?
A: The GI50 was 24 µM (inactive).

Q: And the GI50 (SN12C)?
A: Its GI50 is 15.9 µM (inactive).

Q: What about the GI50 (OVCAR-3) of the same molecule?
A: The GI50 was 91.8 µM (inactive).

Q: What about the GI50 (HCT-116) of the same molecule?
A: The GI50 was 18.9 µM (inactive).

Q: What about the GI50 (SK-MEL-28) of the same molecule?
A: Its GI50 is > 100 µM (inactive).

Q: And the GI50 (A549)?
A: The GI50 was > 100 µM (inactive).
